Data: patent EP3949771B1, “HEAT-NOT-BURN SMOKING ARTICLE, METHOD FOR USING SAME, AND HEAT-NOT-BURN SMOKING SYSTEM” (Japan Tobacco Inc., priority 2019, dated 2020)

Legend:
[1] = First acid dissociation constant of the added acid; type: physicochemical; details: in water at 25°C
Description: The organic acid preferably has a first acid dissociation constant of preferably 4.0 to 5.0, more preferably 4.1 to 4.8, and further preferably 4.2 to 4.5. […] In the present invention, the term "first acid dissociation constant" indicates an acid dissociation constant in water at 25°C and is a value measured, for example, by acid-base titration, absorption spectroscopy, or capillary electrophoresis.

[2] = Evaluation of solubility of acids in glycerol (visual); type: physicochemical; details: for Solubility (-): 10 mg of acid in 1,000 mg of glycerol at 25°C, visual, 5 grades
Description: The organic acid is preferably soluble in the aerosol former at 25°C. […] When the resulting solution is colorless and transparent or the majority of the organic acid added is invisible due to dissolution, the organic acid is determined as "soluble." Since a solution of a polyol, such as glycerol, is difficult to measure at room temperature due to the high viscosity, it is desirable to observe the solution after appropriately dissolving once at a high temperature, followed by cooling to room temperature.
The evaluation was made by 5 grades from 1 of "no dissolution" to 5 of "complete dissolution." Herein, a grade of 3 or higher was regarded as "soluble."

## O=C(O)CCCCC(=O)O [Adipic acid]
[1]
  First acid dissociation constant (-): 4.42

## CCCCCCCCCCCCCCCCCCC(=O)O [Nonadecanoic acid]
[2]
  Solubility (-): 1
[1]
  First acid dissociation constant (-): 5.10

## CC(=O)C(=O)O [Pyruvic acid]
[2]
  Solubility (-): 5
[1]
  First acid dissociation constant (-): 2.50

## CC(=O)CCC(=O)O [Levulinic acid]
[2]
  Solubility (-): 5
[2]; 25°C
  Solubility in glycerol as an aerosol former (in words): soluble
[1]
  First acid dissociation constant (-): 4.44
